# From patent US6858638B2, “Substituted indazoles, compositions containing them, method of production and use” (Aventis Pharma S.A., priority 2002, dated 2005)
# Key:
# Assay type in all cases: biochemical
# [1] = biological target: T1, human FAK (Homo sapiens, UniProt Q05397); experiment: FAK autophosphorylation inhibition, time resolved fluorescence (HTRF) assay; settings: 10 μM (values without asterisk); for inhibition at 10 µM: read-out: FAK % inhib at 10 μM
# T1 construct: The complete cDNA of human FAK; made in house; host or cells: baculovirus expression system (vector pFastBac HTc)
# Procedure, shortened: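 Autophosphorylation was detected by europium-cryptate anti-pTyr and XL665 anti-His energy transfer, percent inhibition from the 665/620 ratio relative to no-compound wells. Enzyme: His-FAK full length, 6.6 µg/ml, incubated 1 h at 37 °C, pH 7.2, 15 µM ATP.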
# [2] = biological target: T2, human KDR enzyme (Homo sapiens, UniProt P35968); experiment: KDR substrate (PLCγ) phosphorylation, scintillation assay; settings: 10 μM; read-out: KDR % inhib at 10 μM
# T2 construct: The cytoplasmic domain of the human KDR enzyme; GST; made in house; host or cells: SF21 insect cells (baculovirus)
# Procedure, shortened: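 Values are percent inhibition relative to the compound-free control, read by scintillation counting of 33P incorporation after EDTA stop. Baculovirus/SF21-expressed GST-KDR cytoplasmic domain (100 ng) acted for 1 h at 37 °C in pH 7.2 MOPS kinase buffer. The substrate was GST-PLCγ SH2-SH3 (2 μg), added with γ33P-ATP and 2 μM unlabeled ATP.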
# [3] = biological target: T3, human IGF1R cytoplasmic domain (Homo sapiens, UniProt P08069); experiment: IGF1R autophosphorylation inhibition, time resolved fluorescence (HTRF) assay; settings: 10 μM; read-out: IGF1R % inhib at 10 μM
# T3 construct: The human IGF1R cytoplasmic domain was cloned; made in house; host or cells: SF21 insect cells (baculovirus)
# Procedure, shortened: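 GST-tagged human IGF1R cytoplasmic domain from SF21 cells incubated with compound in 50 mM Hepes pH 7.5, 5 mM MnCl2, 50 mM NaCl, […] ATP. Autophosphorylation detected by HTRF (Eu-K anti-phosphotyrosine, XL665 anti-GST) after EDTA/KF stop; percentage inhibition versus no-compound control.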
# T2 sequence (P35968 786-1356 limits assumed): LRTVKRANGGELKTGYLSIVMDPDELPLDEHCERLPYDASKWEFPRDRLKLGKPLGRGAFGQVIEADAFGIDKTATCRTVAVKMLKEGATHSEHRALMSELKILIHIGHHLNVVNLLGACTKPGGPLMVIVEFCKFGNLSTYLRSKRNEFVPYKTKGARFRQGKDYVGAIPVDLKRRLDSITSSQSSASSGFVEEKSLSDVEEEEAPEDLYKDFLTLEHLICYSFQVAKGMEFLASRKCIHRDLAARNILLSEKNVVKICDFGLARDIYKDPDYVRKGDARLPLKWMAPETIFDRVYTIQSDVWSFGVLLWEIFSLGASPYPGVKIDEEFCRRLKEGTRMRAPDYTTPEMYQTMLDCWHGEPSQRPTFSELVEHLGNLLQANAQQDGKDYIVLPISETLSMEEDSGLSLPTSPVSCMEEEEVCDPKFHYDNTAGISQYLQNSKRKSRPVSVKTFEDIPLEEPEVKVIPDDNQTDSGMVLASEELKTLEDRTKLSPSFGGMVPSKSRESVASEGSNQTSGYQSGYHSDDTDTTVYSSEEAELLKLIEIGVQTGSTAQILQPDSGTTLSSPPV
# T3 sequence (P08069 960-1367 limits assumed): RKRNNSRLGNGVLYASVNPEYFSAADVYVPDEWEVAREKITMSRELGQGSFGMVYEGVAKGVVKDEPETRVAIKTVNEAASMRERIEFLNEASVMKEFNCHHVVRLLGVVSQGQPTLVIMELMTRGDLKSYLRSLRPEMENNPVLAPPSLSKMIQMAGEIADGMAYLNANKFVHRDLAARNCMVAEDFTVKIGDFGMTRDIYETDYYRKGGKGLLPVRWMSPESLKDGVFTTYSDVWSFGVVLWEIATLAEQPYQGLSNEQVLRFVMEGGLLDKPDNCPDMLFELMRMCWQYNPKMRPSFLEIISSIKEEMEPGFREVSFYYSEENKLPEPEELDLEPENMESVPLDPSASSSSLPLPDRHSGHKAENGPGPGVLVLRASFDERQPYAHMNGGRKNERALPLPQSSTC
# T1 sequence (Q05397 whole entry): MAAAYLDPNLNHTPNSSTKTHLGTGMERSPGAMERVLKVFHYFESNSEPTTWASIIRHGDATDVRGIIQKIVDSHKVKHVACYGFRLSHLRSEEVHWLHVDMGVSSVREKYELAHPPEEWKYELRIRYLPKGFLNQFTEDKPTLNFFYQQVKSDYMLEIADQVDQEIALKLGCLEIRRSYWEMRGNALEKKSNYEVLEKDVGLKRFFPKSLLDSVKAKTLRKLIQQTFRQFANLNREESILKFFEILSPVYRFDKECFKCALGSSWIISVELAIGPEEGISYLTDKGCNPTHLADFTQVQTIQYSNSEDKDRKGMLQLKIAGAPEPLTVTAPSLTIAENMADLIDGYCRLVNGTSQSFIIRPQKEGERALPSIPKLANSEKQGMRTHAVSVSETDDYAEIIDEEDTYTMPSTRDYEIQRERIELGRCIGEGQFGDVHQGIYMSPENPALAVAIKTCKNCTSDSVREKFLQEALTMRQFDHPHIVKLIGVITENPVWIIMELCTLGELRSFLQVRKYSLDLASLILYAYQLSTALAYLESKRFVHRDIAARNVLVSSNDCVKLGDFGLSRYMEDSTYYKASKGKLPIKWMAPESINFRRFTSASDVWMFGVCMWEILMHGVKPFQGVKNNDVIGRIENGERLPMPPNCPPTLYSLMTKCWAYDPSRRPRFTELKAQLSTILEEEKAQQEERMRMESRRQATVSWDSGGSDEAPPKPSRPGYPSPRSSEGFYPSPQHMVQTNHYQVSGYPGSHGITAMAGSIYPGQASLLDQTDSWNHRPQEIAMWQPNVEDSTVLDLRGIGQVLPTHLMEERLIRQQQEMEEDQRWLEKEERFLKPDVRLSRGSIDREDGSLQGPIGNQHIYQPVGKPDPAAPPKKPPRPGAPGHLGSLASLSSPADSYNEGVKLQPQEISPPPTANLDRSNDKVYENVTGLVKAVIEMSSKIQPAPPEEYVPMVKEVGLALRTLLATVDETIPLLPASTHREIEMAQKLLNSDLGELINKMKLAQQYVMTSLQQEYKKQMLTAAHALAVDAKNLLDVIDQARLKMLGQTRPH
inhibition at 10 µM [1] [%],inhibition at 10 µM [2] [%],inhibition at 10 µM [3] [%],FAK % inhib at 10 μM ([1]; 10 µM) [%],Structure (SMILES)
75,93,84,,"O=S(=O)(Nc1ccc2[nH]nc(-c3ccccc3)c2c1)c1ccccc1 [Example 112, N-(3-Phenyl-1H-indazol-5-yl)benzenesulfonamide]"
12,96,40,,"O=C(O)c1cccc(S(=O)(=O)Nc2ccc3[nH]nc(-c4ccccc4)c3c2)c1 [Example 133, 3-(3-Phenyl-1H-indazol-5-ylsulfamoyl)benzoic acid]"
99,71,85,,"CS(=O)(=O)c1ccccc1S(=O)(=O)Nc1ccc2[nH]nc(-c3ccc(N)cc3)c2c1 [Example 70, N-[3-(4-Aminophenyl)-1H-indazol-5-yl]-2-methylsulfonylbenzenesulfonamide]"
90,98,94,,"O=S(=O)(Nc1ccc2[nH]nc(-c3cc4ccccc4[nH]3)c2c1)c1ccccc1OC(F)(F)F [Example 84, N-[3-(1H-Indol-2-yl)-1H-indazol-5-yl]-2-trifluoromethoxybenzenesulfonamide]"
100,25,0,,"Nc1n[nH]c2ccc(NS(=O)(=O)c3cc(F)cc(F)c3)cc12 [Example 42, N-(3-Amino-1H-indazol-5-yl)-3,5-difluorobenzenesulfonamide]"
92,85,90,,"CS(=O)(=O)c1ccccc1S(=O)(=O)Nc1ccc2[nH]nc(C#Cc3ccccc3)c2c1 [Example 89, 2-Methylsulfonyl-N-(3-phenylethynyl-1H-indazol-5-yl)-benzenesulfonamide]"
64,95,51,,"COc1ccc(OC)c(S(=O)(=O)Nc2ccc3[nH]nc(-c4ccccc4)c3c2)c1 [Example 131, 2,5-Dimethoxy-N-(3-phenyl-1H-indazol-5-yl)-benzenesulfonamide]"
98,51,64,,"COC(=O)c1cccc(-c2n[nH]c3ccc(NS(=O)(=O)c4ccccc4S(C)(=O)=O)cc23)c1 [Example 55, Methyl 3-[5-(2-methylsulfonylbenzenesulfonamino)-1H-indazol-3-yl]benzoate]"
94,68,94,,"CS(=O)(=O)c1ccccc1S(=O)(=O)Nc1ccc2[nH]nc(-c3ccc(F)cc3)c2c1 [Example 33, N-[3-(4-Fluorophenyl)-1H-indazol-5-yl]-2-methylsulfonylbenzenesulfonamide]"
71,93,67,,"O=S(=O)(Nc1ccc2[nH]nc(-c3ccccc3)c2c1)c1ccc(F)c(F)c1 [Example 152, 3,4-Difluoro-N-(3-phenyl-1H-indazol-5-yl)-benzenesulfonamide]"
86,73,63,,"CS(=O)(=O)c1ccccc1S(=O)(=O)Nc1ccc2[nH]nc(-c3cc4ccccc4s3)c2c1 [Example 65, N-(3-Benzo[b]thiophen-2-yl-1H-indazol-5-yl)-2-methylsulfonylbenzenesulfonamide]"
98,50,37,,"COC(=O)/C=C/c1n[nH]c2ccc(NS(=O)(=O)c3ccccc3S(C)(=O)=O)cc12 [Example 79, Methyl (E)-3-[5(2-methylsulfonylbenzenesulfonylamino)-1H-indazol-3-yl]-acrylate]"
99,64,99,,"CS(=O)(=O)c1ccccc1S(=O)(=O)Nc1ccc2[nH]nc(-c3ccc[nH]3)c2c1 [Example 60, 2-Methylsulfonyl-N-[3-(1H-pyrrol-2-yl)-1H-indazol-5-yl]benzenesulfonamide]"
71,36,18,,"Nc1n[nH]c2ccc(NS(=O)(=O)c3c(Cl)cccc3Cl)cc12 [Example 41, N-(3-Amino-1H-indazol-5-yl)-2,6-dichlorobenzenesulfonamide]"
96,76,87,,"CS(=O)(=O)c1ccccc1S(=O)(=O)Nc1ccc2[nH]nc(-c3ccncc3)c2c1 [Example 54, 2-Methylsulfonyl-N-(3-pyridin-4-yl-1H-indazol-5-yl)benzenesulfonamide]"
99,98,99,,"CS(=O)(=O)c1ccccc1S(=O)(=O)Nc1ccc2[nH]nc(-c3cc4ccccc4[nH]3)c2c1 [Example 61, N-[3-(1H-Indol-2-yl)-1H-indazol-5-yl]-2-methylsulfonylbenzenesulfonamide]"
73,88,81,,"O=[N+]([O-])c1ccccc1S(=O)(=O)Nc1ccc2[nH]nc(-c3ccccc3)c2c1 [Example 113, 2-Nitro-N-(3-phenyl-1H-indazol-5-yl)benzenesulfonamide]"
55,22,12,,"Nc1n[nH]c2ccc(NS(=O)(=O)c3c(F)cccc3F)cc12 [Example 40, N-(3-Amino-1H-indazol-5-yl)-2,6-difluorobenzenesulfonamide]"
56,94,68,,"COc1cccc(S(=O)(=O)Nc2ccc3[nH]nc(-c4ccccc4)c3c2)c1 [Example 156, 3-Methoxy-N-(3-phenyl-1H-indazol-5-yl)-benzenesulfonamide]"
53,93,56,,"O=S(=O)(Nc1ccc2[nH]nc(-c3ccccc3)c2c1)c1ccc(F)cc1 [Example 117, 4-Fluoro-N-(3-phenyl-1H-indazol-5-yl)-benzenesulfonamide]"
99,74,88,,"CS(=O)(=O)c1ccccc1S(=O)(=O)Nc1ccc2[nH]nc(-c3cccc(N)c3)c2c1 [Example 62, N-[3-(3-Aminophenyl)-1H-indazol-5-yl]-2-methylsulfonylbenzenesulfonamide]"
98,93,99,,"CS(=O)(=O)c1ccccc1S(=O)(=O)Nc1ccc2[nH]nc(-c3nc4ccccc4[nH]3)c2c1 [Example 81, N-[3-(1H-Benzimidazol-2-yl)-1H-indazol-5-yl]-2-methylsulfonylbenzenesulfonamide]"
,34,73,0,"CC(=O)Nc1ccc(S(=O)(=O)Nc2ccc3[nH]nc(-c4ccccc4)c3c2)cc1 [Example 95, N-[4-(3-Phenyl-1H-indazol-5-ylsulfamoyl)phenyl]acetamide]"
96,24,34,,"Nc1n[nH]c2ccc(NS(=O)(=O)c3cccc(F)c3)cc12 [Example 26, N-(3-Amino-1H-indazol-5-yl)-3-fluorobenzenesulfonamide]"
67,90,81,,"O=S(=O)(Nc1ccc2[nH]nc(-c3ccccc3)c2c1)c1ccccc1F [Example 134, 2-Fluoro-N-(3-phenyl-1H-indazol-5-yl)-benzenesulfonamide]"
94,74,13,,"O=S(=O)(Nc1ccc2[nH]nc(-c3ccccc3)c2c1)C1CCNCC1 [Example 100, N-(3-Phenyl-1H-indazol-5-yl)-piperidine-4-sulfonamide]"
36,88,70,,"Nc1ccc(S(=O)(=O)Nc2ccc3[nH]nc(-c4ccccc4)c3c2)cc1 [Example 94, 4-Amino-N-(3-phenyl-1H-indazol-5-yl)benzenesulfonamide]"
93,49,80,,"CS(=O)(=O)c1ccccc1S(=O)(=O)Nc1ccc2[nH]nc(-c3ccoc3)c2c1 [Example 52, N-(3-Furan-3-yl-1H-indazol-5-yl)-2-methylsulfonylbenzenesulfonamide]"
66,91,80,,"O=S(=O)(Nc1ccc2[nH]nc(-c3ccccc3)c2c1)c1cccs1 [Example 110, N-(3-Phenyl-1H-indazol-5-yl)-thiophene-2-sulfonamide]"
88,85,96,,"CS(=O)(=O)c1ccccc1S(=O)(=O)Nc1ccc2[nH]nc(-c3ccc(Cl)cc3)c2c1 [Example 30, N-[3-(4-Chlorophenyl)-1H-indazol-5-yl]-2-methylsulfonylbenzenesulfonamide]"
